What was measured:
[1] = system: p-TPL2; experiment: Immunoblot of activated ectopic TPL2 (anti-p-TPL2 antibody); format: cell-based, human; conditions: Pa01C and HPAC cells overexpressing TPL2
Experimental: Standard immunoblotting procedure was followed. Cells were washed twice with ice-cold 1×PBS and lysed with ice-cold triton-X lysis buffer (25 mM Tris, pH 7.4, 150 mM NaCl, 5 mM EDTA, 1% Triton-X) containing 1× protease (10 μg mL-1 leupeptin, 700 ng mL-1 pepstatin, 170 ng mL-1 aprotinin, 1 mM PMSF) and phosphatase (10 mM NaF, 1 mM Na3VO4, 1 mM Na4P2O^7, 5 mM Na b-glycerophosphate) inhibitors. Lysates were quantified by Bradford assay (Thermo Scientific), normalized for concentration, and reduced and denatured with 6×SDS sample buffer followed by boiling for 5 minutes. 20-40 μg of protein per sample was resolved by SDS-PAGE, blotted on PVDF membrane and probed with primary antibodies (Cell Signaling Technologies: p-ERK1/2 (#4370), p-MEK1/2 (#9154), ERK1/2 (#4695), MEK1/2 (#8727), p-p105 (#4806), NFS2KB1 p105/p50 (#3035), p-IRAK4 (#11927), IRAK4 (#4363), ubiquitin (#43124), anti-HA (#3724), p-p90RSK (#11989), RSK1/2/3 (#9355), p-TPL2 (#4491), PARP (#9532), p-B-RAF S445 (#2696), BRAF (#9433S). Santa Cruz Biotechnology: GAPDH (#sc-32233), p-p65 […] (#sc101752). Thermo Fisher Scientific: p-55 TPL2 (#PA5-36635). EMD Millipore: IRAK4 (#07-418). R&D systems: TPL2/MAP3K8 (#MAB4586). Novus Biologicals: anti-AU1 (#NB600-453). Abcam: p-p65 […] (#ab194726)). […]

[2] = system: HPNE-KRAS^G12D cells, HEKT/tH-KRAS^G12V cells, conventional PDAC lines, and PDCLs; experiment: Anchorage independent soft agar growth assay, human KRAS-mutant lines; format: cell-based
Experimental: Cells were seeded at 5000-15000 cells in 0.3% noble agar-DMEM suspension per well, in triplicate, in 24 well plate. For drug treatment, compound was added to cell suspension at 1× concentration. Seeded cells were fed with fresh 0.6% agar-DMEM mix once every 7-12 days. […] After 3-6 weeks, colonies were counted under microscope and imaged. Colony count was normalized to control and graphed in GraphPad Prism v7/8.

[3] = system: HEK T/tH-KRAS^G12V cells; experiment: Drug response and viability assay, HEK T/tH-KRAS^G12V with or without MEK1-5DD; format: cell-based, human; conditions: 96 hours, GI50
Experimental: Cells were seeded at 1500-2500 cells per well in triplicates, in 96 well format. Next day, appropriate inhibitor was added in serial dilution from 1.00×102 μM or indicated single doses. Vehicle (DMSO) was added to match volume of inhibitor used for highest concentration. After 96-120 hours, 5× AlamarBlue® reagent (resazurin sodium salt, Sigma) was added to wells and incubated for 2-4 hours. Fluorescence at 585 nm (excitation 555 nm) was measured by SpectraMax i3 Microplate Reader. Raw values were normalized to vehicle, analyzed and graphed using GraphPad Prism v7/8 software.

[4] = system: p-p105, p-p65; experiment: Immunoblots of NF-κB markers in PDAC cells; format: cell-based, human; conditions: Pa01C, Pa02C, Pa03C, and HPAC cells; IRAK4 inhibition
Experimental: (§1) Standard immunoblotting procedure was followed. Cells were washed twice with ice-cold 1×PBS and lysed with ice-cold triton-X lysis buffer (25 mM Tris, pH 7.4, 150 mM NaCl, 5 mM EDTA, 1% Triton-X) containing 1× protease (10 μg mL-1 leupeptin, 700 ng mL-1 pepstatin, 170 ng mL-1 aprotinin, 1 mM PMSF) and phosphatase (10 mM NaF, 1 mM Na3VO4, 1 mM Na4P2O^7, 5 mM Na b-glycerophosphate) inhibitors. Lysates were quantified by Bradford assay (Thermo Scientific), normalized for concentration, and reduced and denatured with 6×SDS sample buffer followed by boiling for 5 minutes. 20-40 μg of protein per sample was resolved by SDS-PAGE, blotted on PVDF membrane and probed with primary antibodies (Cell Signaling Technologies: p-ERK1/2 (#4370), p-MEK1/2 (#9154), ERK1/2 (#4695), MEK1/2 (#8727), p-p105 (#4806), NFS2KB1 p105/p50 (#3035), p-IRAK4 (#11927), IRAK4 (#4363), ubiquitin (#43124), anti-HA (#3724), p-p90RSK (#11989), RSK1/2/3 (#9355), p-TPL2 (#4491), PARP (#9532), p-B-RAF S445 (#2696), BRAF (#9433S). Santa Cruz Biotechnology: GAPDH (#sc-32233), p-p65 S536 (#sc101752). Thermo Fisher Scientific: p-55 TPL2 (#PA5-36635). EMD Millipore: IRAK4 (#07-418). R&D systems: TPL2/MAP3K8 (#MAB4586). Novus Biologicals: anti-AU1 (#NB600-453). Abcam: p-p65 S276 (#ab194726)). Membranes were incubated with appropriate HRP-conjugated secondary antibodies (anti-mouse or anti-rabbit, (1:5000 dilution), Jackson Laboratory) and imaged using chemiluminescent substrate. Additional steps for immunoprecipitation include incubation of soluble fraction lysate with anti-HA magnetic beads (Thermo Scientific cat #88837) overnight at 4° C., washing, and elution using 1×SDS sample buffer and boiling as mentioned in manufacturer's protocol.

[5] = system: p-MEK, p-ERK, and p-RSK; experiment: Immunoblots of MAPK pathway markers in human cell lines; format: cell-based
Experimental: as §1

`CC[C@@H]1[C@H](F)C(=O)N[C@@H]1COc1nccc2cc(C(N)=O)c(OC)cc12` [PF06650833, 1-(((2S,3S,4S)-3-ethyl-4-fluoro-5-oxopyrrolidin-2-yl)methoxy)-7-methoxyisoquinoline-6-carboxamide] was tested, and the “activated state of ectopically expressed TPL2 (p-TPL2)” value [1] was “dose-dependently deactivated”, the AI growth ([2]; HPNE-KRAS^G12D cells) was “crippled the AI growth” and the “AI growth enhanced by IRAK4 overexpression” value ([2]; HPNE-KRAS^G12D cells ectopically expressing IRAK4) was “reversed the effect of IRAK4 overexpression”. For the same compound, the “loss of sensitivity to growth inhibition on expression of MEK1-5DD” value [3] was “approximately 3 fold”, the p-p105 levels [4] was “suppresses” and the “p-MEK and p-ERK” value ([5]; 293T cells transfected with oncogenic BRAF^V600E, 24 hours) was “neither TPL2i nor IRAK4i suppressed”. For the same compound, the “p-MEK and p-ERK / MAPK activity” value ([5]; BxPc-3 PDAC line (BRAF mutation, WT KRAS)) was “neither TPL2i nor IRAK4i suppressed”, the “KRAS mutant-upregulated p-MEK, p-ERK, and p-RSK levels” value ([5]; HPNE-KRAS^G12D and 293T-KRAS^G12V, 24 hours, serum-free) was “dose-dependently blocked” and the “p-MEK and p-ERK levels enhanced by ectopic TPL2” value ([5]; Pa01C and HPAC cells overexpressing TPL2, serum-free) was “blocked”. For the same compound, the “MAPK activity (immunoblot)” value ([5]; Pa01C, Pa02C, Pa03C and HPAC, 16 hours) was “dose-dependently suppressed”.

From patent US12173039B1, “TPL2 inhibiting agents, uses thereof, and detection of TPL2” (Washington University, priority 2021, dated 2024)
